Source: ChEMBL document CHEMBL5257102, “Enzymatic transformation of esculetin as a potent class of α-glucosidase inhibitors” (Bioorg Med Chem Lett, 2023)

Assays:
Assay type in all cases: protein assay
Alpha glucosidase [1] = target: T1, Alpha glucosidase (Homo sapiens, UniProt O43451+P10253+P14410+Q2M2H8); assay: Inhibition of Alpha-glucosidase (unknown origin)
Alpha glucosidase [2] = target: T1, Alpha glucosidase; assay: Competitive inhibition of Alpha-glucosidase (unknown origin) by Lineweaver-Burk plot analysis
Alpha glucosidase [3] = target: T1, Alpha glucosidase; assay: Inhibition of Alpha-glucosidase (unknown origin) by Lineweaver-Burk plot analysis; details: dose 4.0 µM

Compound | IC50 (Alpha glucosidase [1]) [µM] | Ki (Alpha glucosidase [2]) [µM] | inhibition (Alpha glucosidase [3])
O=c1ccc2c(-c3c(O)c(O)c(-c4c(O)c(O)cc5ccc(=O)oc45)c4oc(=O)ccc34)c(O)c(O)cc2o1 | 4.2 |  | 
O=c1ccc2cc(O)c(O)c(-c3c(O)c(O)cc4ccc(=O)oc34)c2o1 | 6.4 | 3.4 | 
O=c1ccc2c(-c3c(O)c(O)c(-c4c(O)c(O)cc5oc(=O)ccc45)c4oc(=O)ccc34)c(O)c(O)cc2o1 | 4.7 | 1.9 | 
O=c1ccc2c(Oc3cc4oc(=O)ccc4c(-c4c(O)c(O)c(-c5c(O)c(O)c(-c6c(O)c(O)cc7oc(=O)ccc67)c6ccc(=O)oc56)c5ccc(=O)oc45)c3O)c(O)c(O)cc2o1 | 0.7 | 0.2 | Dose-Dependent Effect

The next lines start with the values.

IC50 (Alpha glucosidase [1]) [µM] | Ki (Alpha glucosidase [2]) [µM] | inhibition (Alpha glucosidase [3]) | Compound
> 500 |  |  | O=c1ccc2cc(O)c(O)cc2o1 [ESCULETIN]
17.6 | 10.1 |  | O=c1ccc2c(-c3c(O)c(O)cc4ccc(=O)oc34)c(O)c(O)cc2o1
2.3 | 0.9 |  | O=c1ccc2c(-c3c(O)c(O)c(-c4c(O)c(O)c(-c5c(O)c(O)cc6oc(=O)ccc56)c5oc(=O)ccc45)c4oc(=O)ccc34)c(O)c(O)cc2o1
